# Reference: the supplement of paper PMC10307832
# Tests used:
# Assay in all cases: relative viability (nuclei count vs DMSO), 5 days (fraction); higher = more cells survive
# [1] = system: 201T
# In short: (§1)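 A single step with final 0.05% Triton X-100, 1% formaldehyde and 1 ug/ml Hoechst fixed the cells and stained nuclei 5 days after treatment. Lung cancer cell lines in 1536-well plates had been treated by pin tool the day after seeding with one drug alone or a fixed anchor-drug dose plus five library-drug doses (not always all listed) in √10 steps, and nuclei were counted on 4× images. Relative viability is the ratio of nuclei in treated wells to nuclei in vehicle wells, taken as the median of duplicate plates.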
# [2] = system: COR-L 105
# In short: as §1
# [3] = system: COR-L23
# In short: as §1
# [4] = system: EKVX
# In short: as §1
# [5] = system: EPLC-272H
# In short: as §1
# [6] = system: H3255
# In short: as §1
# [7] = system: HCC-15
# In short: as §1
# [8] = system: HCC-827
# In short: as §1
# [9] = system: LCLC-97TM1
# In short: as §1
# [10] = system: NCI-H1395
# In short: as §1
# [11] = system: NCI-H1648
# In short: as §1
# [12] = system: NCI-H1650
# In short: as §1
# [13] = system: NCI-H1651
# In short: as §1
# [14] = system: NCI-H1792
# In short: as §1
# [15] = system: NCI-H1915
# In short: as §1
# [16] = system: NCI-H2023
# In short: as §1
# [17] = system: NCI-H322M
# In short: as §1
# [18] = system: NCI-H358
# In short: as §1
# [19] = system: NCI-H460
# In short: as §1
# [20] = system: NCI-H520
# In short: as §1
# [21] = system: NCI-H596
# In short: as §1
# [22] = system: NCI-H647
# In short: as §1
# [23] = system: SK-MES-1
# In short: as §1
# [24] = system: SW 900
# In short: as §1
smiles,measurement,setting,value
Oc1nc(-c2ccc(C(F)(F)F)cc2)nc2c1CSCC2 [XAV939] + CC(=O)Nc1cccc(-n2c(=O)n(C3CC3)c(=O)c3c(Nc4ccc(I)cc4F)n(C)c(=O)c(C)c32)c1 [Trametinib] (partner 0.02 µM),relative viability,[1]; first compound 0.08 µM,0.78
same,relative viability,[1]; first compound 0.253 µM,0.648
same,relative viability,[1]; first compound 0.8 µM,0.685
same,relative viability,[1]; first compound 2.53 µM,0.569
same,relative viability,[2]; first compound 0.08 µM,0.43
same,relative viability,[2]; first compound 0.253 µM,0.433
same,relative viability,[2]; first compound 0.8 µM,0.4
same,relative viability,[2]; first compound 2.53 µM,0.414
same,relative viability,[3]; first compound 0.08 µM,0.651
same,relative viability,[3]; first compound 0.253 µM,0.597
same,relative viability,[3]; first compound 0.8 µM,0.543
same,relative viability,[3]; first compound 2.53 µM,0.531
same,relative viability,[4]; first compound 0.08 µM,0.346
same,relative viability,[4]; first compound 0.253 µM,0.317
same,relative viability,[4]; first compound 0.8 µM,0.311
same,relative viability,[4]; first compound 2.53 µM,0.245
same,relative viability,[5]; first compound 0.08 µM,0.29
same,relative viability,[5]; first compound 0.253 µM,0.251
same,relative viability,[5]; first compound 0.8 µM,0.274
same,relative viability,[5]; first compound 2.53 µM,0.23
same,relative viability,[6]; first compound 0.08 µM,0.674
same,relative viability,[6]; first compound 0.253 µM,0.528
same,relative viability,[6]; first compound 0.8 µM,0.62
same,relative viability,[6]; first compound 2.53 µM,0.425
same,relative viability,[7]; first compound 0.08 µM,0.416
same,relative viability,[7]; first compound 0.253 µM,0.342
same,relative viability,[7]; first compound 0.8 µM,0.376
same,relative viability,[7]; first compound 2.53 µM,0.304
same,relative viability,[8]; first compound 0.08 µM,0.592
same,relative viability,[8]; first compound 0.253 µM,0.504
same,relative viability,[8]; first compound 0.8 µM,0.642
same,relative viability,[8]; first compound 2.53 µM,0.514
same,relative viability,[9]; first compound 0.08 µM,0.213
same,relative viability,[9]; first compound 0.253 µM,0.199
same,relative viability,[9]; first compound 2.53 µM,0.161
same,relative viability,[10]; first compound 0.08 µM,1.02
same,relative viability,[10]; first compound 0.253 µM,0.974
same,relative viability,[10]; first compound 0.8 µM,1.11
same,relative viability,[10]; first compound 2.53 µM,0.944
same,relative viability,[11]; first compound 0.253 µM,0.438
same,relative viability,[11]; first compound 0.8 µM,0.606
same,relative viability,[11]; first compound 2.53 µM,0.361
same,relative viability,[12]; first compound 0.08 µM,0.568
same,relative viability,[12]; first compound 0.253 µM,0.511
same,relative viability,[12]; first compound 0.8 µM,0.591
same,relative viability,[12]; first compound 2.53 µM,0.303
same,relative viability,[13]; first compound 0.08 µM,0.821
same,relative viability,[13]; first compound 0.253 µM,0.724
same,relative viability,[13]; first compound 0.8 µM,0.825
same,relative viability,[13]; first compound 2.53 µM,0.816
same,relative viability,[14]; first compound 0.08 µM,0.492
same,relative viability,[14]; first compound 0.253 µM,0.473
same,relative viability,[14]; first compound 0.8 µM,0.448
same,relative viability,[14]; first compound 2.53 µM,0.391
same,relative viability,[15]; first compound 0.08 µM,0.359
same,relative viability,[15]; first compound 0.253 µM,0.296
same,relative viability,[15]; first compound 0.8 µM,0.276
same,relative viability,[15]; first compound 2.53 µM,0.294
same,relative viability,[16]; first compound 0.08 µM,0.625
same,relative viability,[16]; first compound 0.253 µM,0.365
same,relative viability,[16]; first compound 0.8 µM,0.473
same,relative viability,[16]; first compound 2.53 µM,0.407
same,relative viability,[17]; first compound 0.08 µM,0.601
same,relative viability,[17]; first compound 0.253 µM,0.526
same,relative viability,[17]; first compound 0.8 µM,0.555
same,relative viability,[17]; first compound 2.53 µM,0.48
same,relative viability,[18]; first compound 0.08 µM,0.139
same,relative viability,[18]; first compound 0.253 µM,0.134
same,relative viability,[18]; first compound 0.8 µM,0.122
same,relative viability,[18]; first compound 2.53 µM,0.108
same,relative viability,[19]; first compound 0.08 µM,0.164
same,relative viability,[19]; first compound 0.253 µM,0.0959
same,relative viability,[19]; first compound 0.8 µM,0.124
same,relative viability,[19]; first compound 2.53 µM,0.111
same,relative viability,[20]; first compound 0.08 µM,0.687
same,relative viability,[20]; first compound 0.8 µM,0.501
same,relative viability,[20]; first compound 2.53 µM,0.427
same,relative viability,[21]; first compound 0.08 µM,0.974
same,relative viability,[21]; first compound 0.253 µM,0.775
same,relative viability,[21]; first compound 0.8 µM,0.75
same,relative viability,[21]; first compound 2.53 µM,0.657
same,relative viability,[22]; first compound 0.08 µM,0.446
same,relative viability,[22]; first compound 0.253 µM,0.433
same,relative viability,[22]; first compound 0.8 µM,0.386
same,relative viability,[22]; first compound 2.53 µM,0.372
same,relative viability,[23]; first compound 0.08 µM,0.554
same,relative viability,[23]; first compound 0.253 µM,0.5
same,relative viability,[23]; first compound 0.8 µM,0.489
same,relative viability,[23]; first compound 2.53 µM,0.459
same,relative viability,[24]; first compound 0.253 µM,0.579
same,relative viability,[24]; first compound 0.8 µM,0.955
same,relative viability,[24]; first compound 2.53 µM,0.495
